Data taken from US11746087B1, “C4-carboxylic acid-substituted tryptamine derivatives and methods of using” (priority 2022, dated 2023).
Several values for one entry are separate records, joined by “and”; a condition that tells them apart may be missing. Equal values may be shown once. Read-outs that look alike come from different tables or passages of the source.

Assay: Mouse PK study (IV and PO), plasma parent compound and psilocin by LC-MS/MS
Assay type: in vivo
Conditions: for Plasma concentration of psilocin: BLQ <0.2 ng/mL; for F: C(I); for half-life: read-out: Apparent t1/2 (converted); for MRT inf: read-out: MRT0-inf
Description: Briefly, the procedure was as follows. […] 19, 2022.

[1] = C(I) in plasma, 3 mg/kg oral C(I), per animal, 3 mg/kg
[2] = C(I) in plasma, 10 mg/kg oral C(I), per animal, 10 mg/kg
[3] = male, C57Bl/6, mouse, plasma, intravenous, 1 mg/kg, 1 mg/kg i.v. C(I), Mean ± SD, read-out: Plasma concentration of C(I)
[4] = male, C57Bl/6, mouse, plasma, iv, 1 mg/kg, C(I) in plasma, 1 mg/kg i.v. C(I), Mean ± SD
[5] = male, C57Bl/6, mouse, plasma, iv, 1 mg/kg, C(I) in plasma, 1 mg/kg i.v. C(I), per animal
[6] = male, C57Bl/6, mouse, plasma, oral, 1 mg/kg, 1 mg/kg oral C(I), Mean ± SD, read-out: Plasma concentration of C(I)

CN(C)CCc1c[nH]c2cccc(OC(=O)c3ccc(Br)cc3)c12 [C(I)]
Plasma concentration of psilocin (1 mg/kg i.v. C(I), 6 h, per animal): BLQ
Plasma concentration of C(I) (1 mg/kg i.v. C(I), 6 h, per animal, BLQ <0.5 ng/mL): BLQ
Plasma concentration of psilocin (1 mg/kg i.v. C(I), 8 h, per animal): BLQ
Plasma concentration of C(I) (1 mg/kg i.v. C(I), 8 h, per animal, BLQ <0.5 ng/mL): BLQ (2×) and No Peak
Plasma concentration of C(I) (1 mg/kg oral C(I), 1 h, per animal, BLQ <0.5 ng/mL): BLQ
Plasma concentration of C(I) (1 mg/kg oral C(I), 2 h, per animal, BLQ <0.5 ng/mL): BLQ
Plasma concentration of C(I) (1 mg/kg oral C(I), 4 h, per animal, BLQ <0.5 ng/mL): BLQ
Plasma concentration of C(I) (1 mg/kg oral C(I), 6 h, per animal, BLQ <0.5 ng/mL): BLQ
Plasma concentration of psilocin (1 mg/kg oral C(I), 8 h, per animal): BLQ
Plasma concentration of C(I) (1 mg/kg oral C(I), 8 h, per animal, BLQ <0.5 ng/mL): BLQ
Plasma concentration of psilocin (1 mg/kg oral C(I), 24 h, per animal): No Peak (2×) and BLQ
Plasma concentration of C(I) (1 mg/kg oral C(I), 24 h, per animal, BLQ <0.5 ng/mL): No Peak and No (2×)
Plasma concentration of C(I) (3 mg/kg oral C(I), 8 h, per animal, BLQ <0.5 ng/mL): BLQ
Plasma concentration of psilocin (3 mg/kg oral C(I), 24 h, per animal): No Peak
Plasma concentration of C(I) (3 mg/kg oral C(I), 24 h, per animal, BLQ <0.5 ng/mL): No Peak
Plasma concentration of psilocin (10 mg/kg oral C(I), 24 h, per animal): BLQ
Plasma concentration of C(I) (10 mg/kg oral C(I), 24 h, per animal, BLQ <0.5 ng/mL): No Peak
AUC0-tlast/Dose (C(I) in plasma, 1 mg/kg i.v. C(I), mean (n = 2)): 57.6 (n = 2) h * kg * ng/mL/mg
VSS (C(I) in plasma, 1 mg/kg i.v. C(I), per animal, 1 mg/kg): 12.65 L/kg
AUC0-tlast/Dose (C(I) in plasma, 1 mg/kg oral C(I), Mean ± SD): 1.34 ± 1.02 kg·ng·h/mL/mg
Tmax (C(I) in plasma, 1 mg/kg oral C(I), per animal): 30 min
Cmax/Dose (C(I) in plasma, 1 mg/kg oral C(I), per animal, 1 mg/kg): 0.54 kg·ng/mL/mg
Cmax/Dose [1]: 0.650 kg·ng/mL/mg and 0.720 kg·ng/mL/mg and 0.780 kg·ng/mL/mg
Tmax [1]: 30 min
Cmax [2]: 7.10 ng/mL
Cmax/Dose [2]: 0.720 kg·ng/mL/mg and 0.710 kg·ng/mL/mg
Tmax [2]: 30 min
F (1 mg/kg oral C(I), Mean ± SD, AUC0-tlast used for p.o. group, might be under-estimated): 0.355 ± 0.272%
F (1 mg/kg oral C(I), Mean ± SD, if M37 (i.v.) is considered as an outlier): 2.30 ± 1.76%
F (1 mg/kg oral C(I), per animal, AUC0-tlast used for p.o. group, might be under-estimated, 1 mg/kg): 0.0450%
F (1 mg/kg oral C(I), per animal, if M37 (i.v.) is considered as an outlier, 1 mg/kg): 3.59% and 0.291% and 3.01%
F (3 mg/kg oral C(I), Mean ± SD, AUC0-tlast used for p.o. group, might be under-estimated): 0.491 ± 0.0292%
F (3 mg/kg oral C(I), Mean ± SD, if M37 (i.v.) is considered as an outlier): 3.18 ± 0.189%
F (3 mg/kg oral C(I), per animal, AUC0-tlast used for p.o. group, might be under-estimated, 3 mg/kg): 0.466%
F (3 mg/kg oral C(I), per animal, if M37 (i.v.) is considered as an outlier, 3 mg/kg): 3.02% and 3.13% and 3.39%
F (10 mg/kg oral C(I), Mean ± SD): 0.498 ± 0.113%
F (10 mg/kg oral C(I), Mean ± SD, if M37 (i.v.) is considered as an outlier): 3.22 ± 0.731%
F (10 mg/kg oral C(I), per animal, 10 mg/kg): 0.419%
F (10 mg/kg oral C(I), per animal, if M37 (i.v.) is considered as an outlier, 10 mg/kg): 2.71% and 2.90% and 4.06%
concentration at 5 min (male, C57Bl/6, mouse, plasma, intravenous, 1 mg/kg, 1 mg/kg i.v. C(I), 5 min, Mean ± SD, read-out: Plasma concentration of C(I)): 944 ± 1450 ng/mL
concentration at 0.25 h [3]: 452 ± 691 ng/mL
concentration at 0.5 h [3]: 137 ± 183 ng/mL
concentration at 1 h (male, C57Bl/6, mouse, plasma, intravenous, 1 mg/kg, 1 mg/kg i.v. C(I), 1 h, Mean ± SD, read-out: Plasma concentration of C(I)): 53.2 ± 64.8 ng/mL
concentration at 2 h (male, C57Bl/6, mouse, plasma, intravenous, 1 mg/kg, 1 mg/kg i.v. C(I), 2 h, Mean ± SD, read-out: Plasma concentration of C(I)): 19.9 ± 28.5 ng/mL
concentration at 4 h (male, C57Bl/6, mouse, plasma, intravenous, 1 mg/kg, 1 mg/kg i.v. C(I), 4 h, Mean ± SD, read-out: Plasma concentration of C(I)): 3.46 ± 4.7 ng/mL
concentration at 6 h (male, C57Bl/6, mouse, plasma, intravenous, 1 mg/kg, 1 mg/kg i.v. C(I), 6 h, mean (n = 2), read-out: Plasma concentration of C(I)): 2.51 ng/mL
clearance [4]: 198 mL/min/kg
AUC(0-inf) (male, C57Bl/6, mouse, plasma, iv, 1 mg/kg, C(I) in plasma, 1 mg/kg i.v. C(I), Mean ± SD, read-out: AUC0-inf): 377 ± 552 ng·h/mL
AUC(0-t) (male, C57Bl/6, mouse, plasma, iv, 1 mg/kg, C(I) in plasma, 1 mg/kg i.v. C(I), Mean ± SD, read-out: AUC0-tlast): 374 ± 548 ng·h/mL
half-life [4]: 59.8 ± 18.5 min
C0 (male, C57Bl/6, mouse, plasma, iv, 1 mg/kg, C(I) in plasma, 1 mg/kg i.v. C(I), Mean ± SD, read-out: C0): 1360 ± 2100 ng/mL
MRT inf [4]: 40.1 ± 6.36 min
Vd (male, C57Bl/6, mouse, plasma, iv, 1 mg/kg, C(I) in plasma, 1 mg/kg i.v. C(I), Mean ± SD, read-out: VSS): 8.44 ± 6.83 L/kg
half-life [5]: 68.4 min
MRT inf [5]: 34.1 min
concentration at 0.25 h [6]: 0.646 ± 0.251 ng/mL
concentration at 0.5 h [6]: 0.877 ± 0.376 ng/mL
concentration at 1 h (male, C57Bl/6, mouse, plasma, oral, 1 mg/kg, 1 mg/kg oral C(I), 1 h, mean (n = 2), read-out: Plasma concentration of C(I)): 0.898 ng/mL
concentration at 1 h (male, C57Bl/6, mouse, plasma, oral, 1 mg/kg, 1 mg/kg oral C(I), 1 h, per animal, BLQ <0.5 ng/mL, read-out: Plasma concentration of C(I)): 0.775 ng/mL
concentration at 2 h (male, C57Bl/6, mouse, plasma, oral, 1 mg/kg, 1 mg/kg oral C(I), 2 h, mean (n = 2), read-out: Plasma concentration of C(I)): 0.537 ng/mL
concentration at 2 h (male, C57Bl/6, mouse, plasma, oral, 1 mg/kg, 1 mg/kg oral C(I), 2 h, per animal, BLQ <0.5 ng/mL, read-out: Plasma concentration of C(I)): 0.474 ng/mL
concentration at 4 h (male, C57Bl/6, mouse, plasma, oral, 1 mg/kg, 1 mg/kg oral C(I), 4 h, mean (n = 1), read-out: Plasma concentration of C(I)): 0.352 ng/mL
